Results on 6 compounds are retold here after ChEMBL document CHEMBL1123342 (J Med Chem, 1986).

The structures appear in SMILES notation.

For the assay, the target named is Pancreatic elastase (Sus scrofa, UniProt P08419+P00772). As to the kind of experiment: Compound is evaluated for the inhibition of porcine pancreatic (PP) elastase. Format: protein.
Consider `COC(=O)CCC(=O)N[C@@H](C)C(=O)N[C@@H](C)C(=O)N1CCC[C@H]1C(=O)CN(C(=O)Oc1ccccc1)C(C)C`, for which the inhibition constant (Ki) came to 31.5 µM.

`COC(=O)CCC(=O)N[C@@H](C)C(=O)N[C@@H](C)C(=O)N1CCC[C@H]1C(=O)CN(C(=O)Sc1nnnn1C)C(C)C` showed an inhibition constant (Ki) of 19.5 µM.

Regarding `COC(=O)CCC(=O)N[C@@H](C)C(=O)N[C@@H](C)C(=O)N1CCC[C@H]1C(=O)CN(C(=O)Oc1ccc([N+](=O)[O-])cc1)C(C)C`, the Ki is 42.5 µM. Against the preceding compound, the Ki is about 2.2-fold higher.

For `COC(=O)CCC(=O)N[C@@H](C)C(=O)N[C@@H](C)C(=O)N1CCC[C@H]1C(=O)CN(C(=O)OCC(F)(F)C(F)(F)C(F)(F)F)C(C)C`, the Ki was determined as 82.1 µM.

Turning to `COC(=O)CCC(=O)N[C@@H](C)C(=O)N[C@@H](C)C(=O)N1CCC[C@H]1C(=O)CN(C(=O)Oc1c(F)c(F)c(F)c(F)c1F)C(C)C`, the Ki was found to be 35 µM. This Ki lies about 2.3-fold lower than the previous one.

The compound `COC(=O)CCC(=O)N[C@@H](C)C(=O)N[C@@H](C)C(=O)N1CCC[C@H]1C(=O)CN(C(=O)Sc1nnnn1-c1ccccc1)C(C)C` gave a Ki of 2.4 µM.

A word on the Ki: it is a dissociation constant, usually derived from enzyme kinetics or from competition with a known ligand. Low readings indicate tighter binding, high ones weaker binding.
